According to paper PMC9455983 (International Journal of Molecular Sciences, 2022):
Where two headings read alike, the source gives them in different places.

Columns and labels:
[1] = target: κ opioid receptor; set-up: method as in PMID 25996309; conditions: cited from earlier work
[2] = target: δ opioid receptor; set-up: method as in PMID 25996309; conditions: cited from earlier work
[3] = test system: C57BL/6J mice; test: Acute antinociceptive tolerance determination
[4] = test system: C57BL/6J mice; test: Respiration rate in CLAMS/Oxymax system; type: in vivo, mouse; conditions: 100 nmol, i.c.v.
Description: (§1) Respiration rates (in breaths per minute) and animal locomotive activity (as ambulations) were assessed using the Oxymax/CLAMS system (Columbus Instruments, Columbus, OH), as described previously. Mice were habituated to their individual sealed housing chambers for 60 min before testing. Mice were administered 1968-22 (0.3–100 nmol, i.c.v.), morphine (100 nmol, i.c.v.), or vehicle, as indicated, and five min later confined to the CLAMS testing chambers. Pressure monitoring within the sealed chambers measured frequency of respiration. Infrared beams located in the floor measured locomotion as number of beam breaks. Respiration and locomotive data were averaged over 20 min periods for 120 min post-injection of the test compound. Data are presented as % vehicle response ± SEM, ambulation or breaths per minute.

[5] = test system: C57BL/6J mice; test: 55 °C warm-water tail-withdrawal assay (antinociception); type: in vivo, mouse; conditions: for ED50 (and 95% Confidence Interval (C.I.)) Values, i.c.v. (nmol): antinociception at peak response, mice, * ED50 estimated where maximum antinociception not achieved; for duration of significant antinociception: maximum doses tested
Description: For intracerebroventricular (i.c.v.) administration, the 1968-series compounds were dissolved in dimethyl sulfoxide (DMSO), followed by the addition of sterile saline (0.9%) so that the final vehicle was 50% DMSO and 50% saline, and the i.c.v. injections were performed as described previously. For per os (p.o.) administration, 1968-4 and 1968-22 were administered in 10% Ethanol/10%Tween-80/80% 0.9% saline. All solutions for animal administration were prepared fresh daily.
Antinociception was calculated according to the following formula: % antinociception = 100 × (test latency − control latency)/(15 − control latency). Tail-withdrawal data points are the means of 8–16 mice, unless otherwise indicated, with SEM shown by error bars.
All dose–response lines were analyzed by regression, and ED50 (effective dose producing 50% antinociception) values and 95% confidence intervals (C.I.) were determined using individual data points from graded dose–response curves with Prism 8.0 software (GraphPad, La Jolla, CA, USA). Percent antinociception was used to determine within group effects and to allow comparison to baseline latency in tail-withdrawal experiments. The statistical significance of differences between ED50 values was determined by evaluation of the ED50 value shift via nonlinear regression modeling with Prism software. Significant differences in behavioral data were analyzed by ANOVA (one-way or two-way with repeated measures (RM), as appropriate). Significant results were further analyzed with Sidak’s, Tukey’s, or Dunnett’s multiple comparison post hoc tests, as appropriate. Data for conditioned place preference experiments were analyzed by two-way RM ANOVA, with analyses examining the main effect of the conditioned place preference phase (e.g., pre- or post-conditioning) and the interaction of drug pretreatment. Significant effects were further analyzed using Sidak’s HSD post hoc testing. All data are presented as mean ± SEM, with significance set at p < 0.05.

[6] = test system: C57BL/6J mice; test: Conditioned place preference / aversion; type: in vivo, mouse; conditions: 10 mg/kg, i.p.; two days of place conditioning
[7] = test system: C57BL/6J mice; test: Ambulation (locomotor activity) in CLAMS/Oxymax system; type: in vivo, mouse; conditions: 100 nmol, i.c.v.
Description: as §1

[8] = target: T1, delta-opioid receptor (DOR) (Rattus norvegicus, UniProt P33533); test: DOR radioligand competition binding assay ([3H]-DPDPE); conditions: Delta screening results
T1 construct: Rat cortices were homogenized using 50 mM Tris, pH 7.4, 10 mM MgCl2-6H2O, 200 µM PMSF; from tissue; host or cells: rat cortex membranes
How it was run: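 Competition binding on rat cortical homogenate in 50 mM Tris pH 7.4, 10 mM MgCl2, 200 µM PMSF with 2 nM [3H]-DPDPE, 2.5 h at 25 °C. Unlabeled DPDPE defined nonspecific binding; filtration onto BSA-soaked GF/B filters, scintillation counting. Mean ± SD of two experiments in duplicate.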

[9] = test system: C57BL/6J mice; test: Opioid receptor involvement in antinociception (antagonist pretreatment, tail-withdrawal assay); type: in vivo, mouse
Description: Pretreatment of mice with the opioid antagonist naloxone (10 mg/kg, s.c., −15 min) was used to assess receptor contribution to the observed antinociception induced by maximal tested doses of each 1968-series compound tested.
The opioid receptor involvement in the agonist activity of the heterocyclic peptidomimetics was determined by pretreating mice with a single dose of β-funaltrexamine (β-FNA, 10 mg/kg, i.p.) or nor-BNI (10 mg/kg, i.p.) 24 h in advance of administration of a dose of 1968-series compound.

[10] = target: T2, mu-opioid receptor (MOR) (Rattus norvegicus, UniProt P33535); test: MOR radioligand competition binding assay ([3H]-DAMGO); conditions: Mu screening results
T2 construct: Rat cortices were homogenized using 50 mM Tris, pH 7.4, and centrifuged at 16,500 rpm for 10 min; from tissue; host or cells: rat cortex membranes
How it was run: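 Rat cortical membranes in 50 mM Tris pH 7.4 with 2 mg/mL bovine serum were incubated with 2 nM [3H]-DAMGO and test compound. Bound radioligand was separated by filtration on BSA-soaked GF/B filters and counted by scintillation. Values are mean ± SD of two experiments, each in duplicate.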

[11] = target: T3, kappa-opioid receptor (KOR) (Cavia porcellus, UniProt P41144); test: KOR radioligand competition binding assay ([3H]U69,593); set-up: species or system guinea pig; conditions: Kappa screening results
T3 construct: Guinea pig cortices and cerebella were homogenized using 50 mM Tris, pH 7.4; from tissue; host or cells: guinea pig cortex and cerebellum membranes
How it was run: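 Guinea pig cortex and cerebellum homogenates in 50 mM Tris pH 7.4 with 10 mM MgCl2, 2 nM [3H]U69,593, 2 h at 25 °C. Unlabeled U50,488 gave the standard curve and nonspecific binding. Filtration on BSA-soaked GF/B filters, scintillation counting; two replicates, repeated twice, mean ± SD.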

[12] = first Ki column, unit not printed (apparently M), read-out: Ki (first column)
[13] = mean of both Ki, unit inferred, read-out: MEAN (Ki)
[14] = mean of two experiments, read-out: Ki
[15] = second Ki column, unit not printed (apparently M), read-out: Ki (second column)
[16] = experiment 1, unit inferred, read-out: Ki (Exp 1)
[17] = experiment 2, unit inferred, read-out: Ki (Exp 2)
[18] = mean of Exp 1 and Exp 2, unit inferred, read-out: MEAN (Ki)

Structure (SMILES)	time of peak antinociception after i.c.v. administration ([5]; i.c.v.)	ED50 (and 95% Confidence Interval (C.I.)) Values, i.c.v. (nmol) ([5]; i.c.v.)	Ki [8, 12]	Ki [8, 13]	Ki [8, 14]	Ki [8, 15]	duration of significant antinociception ([5]; i.c.v.)	Ki [10, 16]	Ki [10, 17]	Ki [10, 18]	Ki [10, 14]	Ki [11, 16]	Ki [11, 17]	Ki [11, 18]	Ki [11, 14]	further results
CC(C)C[C@H]1CN2C(=CC3=NC[C@H](C(C)C)N3C[C@@H]2Cc2ccc(O)cc2)N1CCc1ccccc1 [Diimidazodiazepine 14]	–	–	–	–	–	–	–	–	–	–	–	–	–	–	–	Ki [1]: 0.023 ± 0.012 µM; Ki [2]: 0.032 ± 0.006 µM
CN1CC[C@]23c4c5ccc(O)c4O[C@H]2[C@@H](O)C=C[C@H]3[C@H]1C5 [Morphine, morphine, reference compound]	30 min	3.09 (2.76–3.50) nmol	–	–	–	–	–	–	–	–	–	–	–	–	–	fold rightward shift in dose-response curve of the second dose (acute tolerance) ([3]; ED50 dose i.c.v. at 0 h, graded doses at 8 h): 7.71 fold; ED50 (95% C.I.) of second dose at 8 h ([3]; i.c.v., after ED50 pretreatment at 0 h): 23.8 (17.0–31.6) nmol; effect on respiration rate vs vehicle [4]: significant, time-dependent respiratory depression; place conditioning result [6]: significant place preference; effect on ambulation vs vehicle [7]: elevated ambulations
Cc1cc(O)cc(C)c1C[C@@H](CN1C(=N)NC[C@@H]1C)N1C[C@H](Cc2ccc(O)cc2)NC1=N [1968-16]	–	2.00 (0.5–7.45) nmol	0.616 µM	0.697 µM	0.697 µM	0.777 µM	70 min	0.00752 µM	0.00924 µM	0.00838 µM	0.008 µM	0.246 µM	0.293 µM	0.27 µM	0.27 µM	effect of naloxone pretreatment on antinociception ([9]; naloxone 10 mg/kg, s.c., −15 min, maximal tested i.c.v. dose of compound): most susceptible to antagonism by naloxone; effect of naltrindole (DOR antagonist) pretreatment on antinociception ([9]; naltrindole 20 mg/kg, i.p., −20 min, 1968-16 30 nmol or 1968-22 0.3 nmol, i.c.v.): significantly antagonized; effect of nor-BNI (KOR antagonist) pretreatment on antinociception ([9]; nor-BNI 10 mg/kg, i.p., −24 h, 1968-16 30 nmol or 1968-22 0.3 nmol, i.c.v.): significantly antagonized; effect of β-FNA (MOR antagonist) pretreatment on antinociception ([9]; β-FNA 10 mg/kg, i.p., −24 h, 1968-16 30 nmol or 1968-22 0.3 nmol, i.c.v.): significantly antagonized
Cc1cc(O)cc(C)c1C[C@H]1CN([C@@H](Cc2ccc(O)cc2)CN2C(=N)NC[C@@H]2Cc2ccccc2)C(=N)N1 [1968-4]	30 min	20.8 (5.52–127.1) nmol	0.729 µM	0.874 µM	0.874 µM	1.02 µM	60 min	0.0169 µM	0.00951 µM	0.0132 µM	0.013 µM	0.311 µM	0.178 µM	0.245 µM	0.245 µM	antinociception at the highest dose tested ([5]; 30 nmol, i.c.v.): approximately 60%; antinociception after oral administration (in words) ([5]; 10 mg/kg, p.o.): significant antinociception; duration of significant antinociception after oral administration ([5]; 10 mg/kg, p.o.): brief
